Key:
[1] = tested on: External panelists; assay: Line scale (15-point sucrose equivalence) sensory test, Example 3A/3C, sucrose or LSB, pH 7.1; assay type: in vivo, Human; design: key to Average Sweetness / Average Bitterness: 15-point scale: 0 = 0% sucrose to 15 = 15% sucrose; references = 5
Description: Several types of sensory tests were used to determine the efficacy of 5-(neopentyloxy)-1H-benzo[c][1,2,6]thiadiazin-4-amino-2,2-dioxide in enhancing sweetness of sucrose. Two types of tests were conducted: • 1) Sensory scaling tests were performed using a 15-point percent sucrose equivalence scale for sweetness in order to evaluate sweetness enhancement 5-(neopentyloxy)-1H-benzo[c][1,2,6]thiadiazin-4-amino-2,2-dioxide in sucrose, or in fructose. • 2) Paired comparison tests (2-alternative forced choice difference tests) were used to determine sweetness equivalence for solutions of sucrose vs. 5-(neopentyloxy)-1H-benzo[c][1,2,6]thiadiazin-4-amino-2,2-dioxide or buffer vs. 5-(neopentyloxy)-1H-benzo[c][1,2,6]thiadiazin-4-amino-2,2-dioxide. Stimuli:
Tests were performed with sucrose or fructose. Sweetener was evaluated with and/or without 5-(neopentyloxy)-1H-benzo[c][1,2,6]thiadiazin-4-amino-2,2-dioxide at the appropriate concentration(s).
5-(Neopentyloxy)-1H-benzo[c][1,2,6]thiadiazin-4-amino-2,2-dioxide was prepared as a concentrated stock solution in ethanol to ensure dissolution of the compound. Therefore, all taste solutions contained 0.1% ethanol final concentration. Samples without compound also contained 0.1% ethanol. Low sodium phosphate buffer consists of 0.3 mM KCl, 0.5 mM Na2HPO4, and 0.175 mM KH2PO4.
In scaling test situations, the samples were rated on a 15-point scale for sweetness, ranging from 0=0% sucrose to 15=15% sucrose. To evaluate attributes other than sweetness, references are used for training and are prepared according to the table below. Note that each reference was given a score of 5 on the 15-point scale.
External panelists were used for the tests. The exact number of panelists is reported with test results. Subjects were instructed not to eat or drink anything (except water) for at least 1 hour prior to the test.
Panelists rinsed their mouths with water prior to starting any test. Samples were presented to panelists in a randomized, counterbalanced order. Panelists rinsed with water and had up to a 1 minute delay to clear the mouth of any tastes after each evaluation. Two replicates of each test were performed, unless otherwise noted.

[2] = tested on: Panelists; assay: Paired comparison taste test, cola composition; assay type: in vivo, Human; details: for Sweetness comparison (conclusion): p>0.10; for Sample selected as sweeter by panelists, Total: vs Cola with 100% Sucrose, n = 39
Description: Cola compositions were prepared using the following ingredients and evaluated for sweetness and/or lingering taste.
The cola emulsion, above, contains the ingredients below:
Panelists evaluated two solutions in a paired comparison taste test procedure and were instructed to select the sweeter of the two samples.

[3] = tested on: Panelists; assay: Paired comparison human taste test, frosted flakes cereal; assay type: in vivo
Description: Frosted Flakes cereals were prepared using the following ingredients and evaluated for sweetness. The sugar frosting contained a reduced amount of sucrose (compared to the “100% sucrose” sugar coated flake cereal) and 15 ppm of 3-(4-amino-2,2-dioxide-1H-benzo[c][1,2,6]thiadiazin-5-yloxy)-2′,2′-dimethyl-N-propylpropanamide.
A Kitchen Aide mixer is equipped with a wire whip attachment and used for mixing sugar and tapioca dextrin. Mix for 5 minutes. Dissolve gum arabic in water using a magnetic stir bar and stir plate. Mix for 1 minute. Add the remaining dry ingredients and compound (if necessary) and heat until the solution reaches 230° F. for 1 minute. The compound was solubilized in ethanol to a 0.30% concentration level before adding to the syrup; this gave a better homogeneity throughout the syrup.
Place weighed amount of corn flakes in the tumbler. Add desired amount of syrup as soon as the syrup is ready. Tumble for 30 minutes while heating the flakes with a heat gun. Further dry the flakes in the convection oven for 200° F. for 50 minutes.
Panelists evaluated the two cereal samples in a paired comparison taste test procedure and were instructed to select the sweeter of the two samples.

[4] = tested on: External panelists; assay: Line scale sensory test, Example 6, fructose as sweetener, pH 7.1; assay type: in vivo, Human; design: Average Sweetness / Average Bitterness: scale not given here
Description: Sensory evaluations were performed using fructose as the sweetener and 3-(4-amino-2,2-dioxide-1H-benzo[c][1,2,6]thiadiazin-5-yloxy)-2′,2′-dimethyl-N-propylpropanamide as the sweetness enhancer, using methods similar to those using sucrose, above. […]

[5] = tested on: Panelists; assay: Paired comparison human taste test, chocolate milk; assay type: in vivo
Description: Chocolate beverage powder can be prepared using, for example, the following ingredients and reconstituted in milk.
A KitchenAide mixer is equipped with a wire whip attachment and used for mixing sugar and salt for 5 seconds. Lecithin is added and the resulting mixture is mixed for an additional 5 seconds. Cocoa, maltodextrin, and vanillin are added and the mixture is mixed for another 10 seconds.
Chocolate milk preparations were prepared by combining a chocolate beverage mixture with milk and the appropriate amount of sugar, or sugar and 3-(4-amino-2,2-dioxide-1H-benzo[c][1,2,6]thiadiazin-5-yloxy)-2′,2′-dimethyl-N-propylpropanamide. 75.0 grams of Full Sugar Chocolate Beverage Powder was mixed into 250 mls of cold (40° F.) 2% lowfat milk and mixed with a wire whip until dissolved. 45.5 grams of the 50% Sugar Chocolate Beverage Powder was mixed into 250 mls of cold (40° F.) 2% lowfat milk and mixed with a wire whip until the powder was dissolve. The Compound A was dissolved into a 0.10% concentration level in propylene glycol and added to the chocolate milk, mixed with a wire whip until homogenous, about 2 minutes.

[6] = 33% Reduced Sucrose Frosted Flakes + 15 ppm compound chosen, 14 panelists

OC[C@H]1O[C@@](CO)(O[C@H]2O[C@H](CO)[C@@H](O)[C@H](O)[C@H]2O)[C@@H](O)[C@@H]1O [Sucrose, sucrose]
Average Sweetness ([1]; 2% Sucrose, Table 10, n = 14): 2.1
Average Bitterness ([1]; 2% Sucrose, Table 12, n = 14): 0.1
Average Sweetness ([1]; 4% Sucrose, Table 10, n = 14): 3.8
Average Bitterness ([1]; 4% Sucrose, Table 12, n = 14): 0.0
Average Sweetness ([1]; 6% Sucrose, Table 10, n = 14): 6.0
Average Sweetness ([1]; 6% Sucrose, Table 11, n = 14): 7.3
Average Bitterness ([1]; 6% Sucrose, Table 12, n = 14): 0.4
Average Bitterness ([1]; 6% Sucrose, Table 13, n = 14): 0.4
Average Bitterness ([1]; 6% Sucrose, pH 7.1, n = 32): 0.3
Average Sweetness ([1]; 6% Sucrose, pH 7.1, n = 32): 6.5
Average Sweetness ([1]; 8% Sucrose, Table 11, n = 14): 8.6
Average Bitterness ([1]; 8% Sucrose, Table 13, n = 14): 0.4
Average Bitterness ([1]; 8% Sucrose, pH 7.1, n = 32): 0.3
Average Sweetness ([1]; 8% Sucrose, pH 7.1, n = 32): 7.9
Average Sweetness ([1]; 9% Sucrose, Table 11, n = 14): 9.4
Average Bitterness ([1]; 9% Sucrose, Table 13, n = 14): 0.6
Average Bitterness ([1]; 9% Sucrose, pH 7.1, n = 32): 0.2
Average Sweetness ([1]; 9% Sucrose, pH 7.1, n = 32): 8.9
Average Sweetness ([1]; 10% Sucrose, Table 11, n = 14): 9.6
Average Bitterness ([1]; 10% Sucrose, Table 13, n = 14): 0.2
Average Bitterness ([1]; 10% Sucrose, pH 7.1, n = 32): 0.3
Average Sweetness ([1]; 10% Sucrose, pH 7.1, n = 32): 9.3

CCCNC(=O)C(C)(C)COc1cccc2c1C(N)=NS(=O)(=O)N2 [3-(4-amino-2,2-dioxide-1H-benzo[c][1,2,6]thiadiazin-5-yloxy)-2′,2′-dimethyl-N-propylpropanamide]
Sweetness comparison (conclusion) ([2]; 60% sucrose cola + 3 ppm (8.47 μM) compound vs 100% sucrose cola): no significant difference in sweetness
Sweetness comparison (conclusion) ([2]; 66% sucrose cola + 3.19 ppm (8.47 μM) compound vs 100% sucrose cola): no significant difference in sweetness
Sample selected as sweeter by panelists, Total ([2]; Cola with 60% Sucrose + 3 ppm (8.47 μM) compound chosen): 18
Sample selected as sweeter by panelists, Total ([2]; Cola with 66% Sucrose + 3.19 ppm (8.47 μM) compound chosen): 22
Sweetness comparison (statement) ([2]; cola with reduced sucrose + 3 ppm or 3.19 ppm compound vs 100% sucrose cola): approximately the same sweetness
Sample selected as sweeter by panelists, Test 1 [3, 6]: 6
Sample selected as sweeter by panelists, Test 2 [3, 6]: 9
Sample selected as sweeter by panelists, Test 3 [3, 6]: 9
Sample selected as sweeter by panelists, Total ([3]; 33% Reduced Sucrose Frosted Flakes + 15 ppm compound chosen, n = 42): 24
Sweetness comparison (conclusion) ([3]; 33% Reduced Sucrose Frosted Flakes + 15 ppm compound vs 100% Sucrose Frosted Flakes): not significantly different in sweetness
off tastes ([4]; 25 μM compound in 6% fructose, LSB, pH 7.1): no significant off tastes
Average Sweetness ([4]; 30 μM (10.6 ppm) compound, no fructose, pH 7.1, n = 30): 0.6
off tastes ([4]; 30.0 μM and 40 μM compound): no significant off tastes
Average Bitterness ([4]; 30 μM compound, no fructose, n = 30): 0.4
Sweetness vs fructose solutions (conclusion) ([4]; 30.0 μM compound, p>0.10): not significantly different in sweetness compared to 0% and 2% fructose respectively
Average Sweetness ([4]; 40 μM (14.2 ppm) compound, no fructose, pH 7.1, n = 30): 1.1
Average Bitterness ([4]; 40 μM compound, no fructose, n = 30): 0.6
Sweetness vs fructose solutions (conclusion) ([4]; 40 μM compound, p>0.10): not significantly different in sweetness compared to 0% and 2% fructose respectively
off tastes ([4]; 100 μM compound in 6% fructose, LSB, pH 7.1): no significant off tastes
Average Sweetness ([4]; 6% Fructose + 25 μM (8.9 ppm) compound, pH 7.1, n = 26): 7.8
Average Bitterness ([4]; 6% Fructose + 25 μM compound, n = 26): 0.2
Average Sweetness ([4]; 6% Fructose + 100 μM (35.4 ppm) compound, pH 7.1, n = 14): 9.2
Average Bitterness ([4]; 6% Fructose + 100 μM compound, n = 14): 0.3
Sweetness vs fructose solutions (conclusion) ([4]; 6% fructose + 25 μM compound, p>0.05): significantly sweeter than 6% fructose
Sweetness vs fructose solutions (conclusion) ([4]; 6% fructose + 100 μM compound, p>0.10): not significantly different than 8% or 9% fructose
Sample selected as sweeter by panelists, Total ([5]; Chocolate Milk with 50% Sugar + compound (7 ppm/(20 μM)) chosen, vs 100% Sugar, n = 51): 28
Sweetness comparison (conclusion) ([5]; chocolate milk with 50% Sugar + compound (7 ppm/(20 μM)) vs full sugar, p>0.10): not significantly different in sweetness
